Literature values in US20140163109A1, “TASTE-MASKED IBUPROPEN GRANULES” (GLATT AG, priority 2012, published 2014).

CC(C)Cc1ccc(C(C)C(=O)O)cc1 (racemic) [Ibuprofen, (±)-2-(4-isobutylphenyl) propionic acid]
solubility in water: poorly soluble in water
